Data reported in publication PMC7011955, “Synthesis and biological evaluation of certain hydrazonoindolin-2-one derivatives as new potent anti-proliferative agents” (Journal of Enzyme Inhibition and Medicinal Chemistry, 2018).
Entries after “also recorded” stand apart in the source; their conditions may differ. Like-named read-outs stand apart in the source and are kept apart here.

What was measured:
[1] = tested on: lung cancer A-549 cell line; test: CellTiter-Glo Luminescent cell viability assay, anti-proliferative activity, A-549; type: cell-based, human; conditions: for inhibition at 30 µM: A549, 30 µM single concentration, read-out: Growth inhibition % A-549
Procedure: (§1) The anti-proliferative activity of the title compounds 3a-e, 5a-e, 7a-c, and 10a-l towards cancer cell lines, normal cell lines, and multidrug-resistant lung cancer NCI-H69AR cell line was determined using CellTiter-Glo™ Luminescent cell viability assay according to the previously published procedures[14]^,[15].
(§2) The cancer cell growth inhibitory activity of the synthesised 25 compounds 3a-e, 5a-e, 7a-c, and 10a-l was evaluated in vitro towards three human cancer cell lines, namely lung cancer A-549, human colon cancer HT-29, and breast cancer ZR-75 cell lines using CellTiter-Glo™ Luminescent cell viability assay. Sunitinib was included in this assay as a reference drug.
(§3) The prepared hydrazonoindolin-2-ones were first evaluated at preliminary anti-proliferative assay against the three cancer cell lines in quadruplicate at a single concentration of 30 µM. The data presented as percentage growth inhibition (GI%) caused by the test compounds (Table 1).

[2] = tested on: breast cancer ZR-75 cell line; test: CellTiter-Glo Luminescent cell viability assay, anti-proliferative activity, ZR-75; type: cell-based; conditions: Homo sapiens, ZR75; 30 µM single concentration, quadruplicate; read-out: Growth inhibition % ZR-75
Procedure: as §1, §2, §3

[3] = tested on: colon cancer HT-29 cell line; test: CellTiter-Glo Luminescent cell viability assay, anti-proliferative activity, HT-29; type: cell-based, human; conditions: Homo sapiens, HT-29; 30 µM single concentration, quadruplicate; read-out: Growth inhibition % HT-29
Procedure: as §1, §2, §3

[4] = tested on: A-549, ZR-75 and HT-29 cell lines; test: Average anti-proliferative activity over the three cancer cell lines; type: cell-based, human; conditions: average over A-549, ZR-75, HT-29; for Average growth inhibition % / inhibition at 30 µM: 30 µM; for inhibition at 30 µM / IC50: Homo sapiens; for inhibition at 30 µM: read-out: Average growth inhibition %
Procedure: as §1, §2, §3

[5] = tested on: A-549 cells; test: Reduction in total cell number, DAPI labeling and imaging cytometry; type: cell-based; conditions: Homo sapiens, A549
Procedure: (§4) Cell cycle effects of the synthesised compounds 7b and 10e were determined adopting the reported procedures[14]^,[15].
(§5) In this study, cancer cells derived from lung adenocarcinoma (A-549) were used to evaluate the effects of compounds 7b and 10e on various aspects of the cell cycle progression. Both immunofluorescent imaging of phosphorylated Rb protein and total DNA content of each cell were explored to determine the activity of compounds 7b and 10e over a range of concentrations less than 100 nM to 50 µM (Figures 3–5).
Figure 3. Effects on number and cell cycle distribution. A-549 cells were treated with dose curve. Compound 7b (left) or 10e (right). […]

[6] = tested on: phosphorylated retinoblastoma (Rb) protein in A-549 cells; test: Immunofluorescent imaging of phosphorylated Rb protein; type: cell-based, human; conditions: for IC50: Homo sapiens, A549
Procedure: as §4, §5

[7] = tested on: A-549 cells; test: Cell cycle distribution by DNA content; type: cell-based, human
Procedure: as §4, §5
Figure 3. Effects on number and cell cycle distribution. A-549 cells were treated with dose curve. Compound 7b (left) or 10e (right). Cell number per cell cycle was determined by DNA content by DAPI fluorescent labeling and imaging cytometry following 48 h treatment.

[8] = tested on: Intestine IEC-6 cells; test: Cell growth inhibition, non-tumorigenic IEC-6; type: cell-based; conditions: Rattus norvegicus, maximum 25 µM, quadruplicate
Procedure: as §1
(§6) The cell growth inhibitory activity of compounds 7b and 10e was examined towards three non-tumorigenic cell lines to estimate their selectivity for tumor cells. A-549 human non-small cell lung cancer (NSCLC) cell line was included in the assay for comparison. […] IEC-6 cells derived from rat intestine show morphologic and karyotypic features of normal intestinal epithelial cells. Fibroblasts derived from embryonic tissue from mice (Swiss-3t3) are both non-tumorigenic and contact inhibited. Compounds 7b and 10e were tested quadruplicate at maximum concentrations of 25 µM, with subsequent 10 serially diluted concentrations.

[9] = tested on: Breast MCF-10A cells; test: Cell growth inhibition, non-tumorigenic MCF-10A; type: cell-based; conditions: Homo sapiens, maximum 25 µM, quadruplicate
Procedure: as §1, §6

[10] = tested on: Fibroblast Swiss-3t3 cells; test: Cell growth inhibition, non-tumorigenic Swiss-3t3; type: cell-based, mice; conditions: Mus musculus, maximum 25 µM, quadruplicate
Procedure: as §1, §6

[11] = tested on: NCI-H69AR cell line (expresses ABCC1 efflux pump); test: Growth inhibition of multidrug resistant lung cancer cell line; type: cell-based
Procedure: as §1
The anti-proliferative activity of compounds 7b and 10e was evaluated towards multidrug resistant lung cancer cell line (NCI-H69AR), which expresses the ABCC1 efflux pump protein. […] Furthermore, the H69AR cells manifested a lesser degree of resistance to the reference drug, Sunitinib (1.9-fold less sensitive).

[12] = tested on: IEC-6, MCF-10A, Swiss-3t3 vs A-549 cell lines; test: Mean tumor selectivity index, non-tumorigenic lines vs A-549; type: cell-based; conditions: non-tumorigenic IEC-6, MCF-10A
Source text: as §6

[13] = tested on: breast cancer ZR-75 cell line; test: CellTiter-Glo Luminescent cell viability assay, anti-proliferative activity, ZR-75; type: cell-based, human; conditions: Homo sapiens, ZR75, mean ± SD of four separate experiments
[14] = tested on: colon cancer HT-29 cell line; test: CellTiter-Glo Luminescent cell viability assay, anti-proliferative activity, HT-29; type: cell-based; conditions: Homo sapiens, mean ± SD of four separate experiments
[15] = Homo sapiens, A549, mean ± SD of four separate experiments, read-out: IC50 A-549
[16] = Homo sapiens, A549, selectivity assay, maximum 25 µM, quadruplicate, read-out: IC50 NSCLC A-549
[17] = Homo sapiens, A549, sensitive line in comparison with resistant NCI-H69AR, read-out: IC50 Sensitive A-549
[18] = A-549, 24 h treatment, read-out: IC50 for reduction in Rb phosphorylation, 24 h

Structure (SMILES) | IC50 [1, 15] [µM] | inhibition at 30 µM ([1]; Homo sapiens, quadruplicate) [%] | inhibition at 30 µM [2] [%] | inhibition at 30 µM [3] [%] | Average growth inhibition % [4] [%] | inhibition at 30 µM [4] [%] | IC50 [4] [µM] | melting point [°C] | IC50 [13] [µM] | IC50 [14] [µM] | also measured
O=C1Nc2ccc(Cl)cc2C1=NNc1nc(-c2ccccc2)cs1 [Compound 10e, 5-Chloro-3–(2-(4-phenylthiazol-2-yl)hydrazono)indolin-2-one] | 4.79 ± 0.45 | 80.4 ± 6 | 89.3 ± 7.2 | 85.7 ± 10.2 | 85.1 | > 80 | 4.66 | 292 to 294 | 1.95 ± 1.03 | 7.25 ± 0.83 | IC50 [1, 16]: 4.13 ± 0.61 µM; IC50 [1, 17]: 4.1 ± 0.61 µM; IC50 ([5]; A-549, 24 h treatment, read-out: IC50 for reductions in the total cell number, 24 h): 7.38 ± 1.04 µM; IC50 ([5]; A-549, 48 h treatment, read-out: IC50 for reductions in the total cell number, 48 h): 7.27 ± 1.15 µM; levels of phosphorylated Rb protein ([6]; A-549, less than 100 nM to 50 µM): significantly reduced in a dose-dependent manner; IC50 [6, 18]: 7.59 ± 0.38 µM; IC50 ([6]; A-549, 48 h treatment, read-out: IC50 for reduction in Rb phosphorylation, 48 h): 12.5 ± 2.1 µM; Cell cycle effects [7]: increase in the percentage of cells in the G1 phase of the cell cycle with corresponding decreases in S- and G2/M phases; also recorded: G1 increased and G2/M-phases decreased; IC50 [8]: 8.98 ± 1.25 µM; IC50 [9]: 5.37 ± 0.61 µM; IC50 [10]: 8.51 ± 1.01 µM; IC50 [11]: 16 µM; Mean tumor selectivity [12]: 1.8
Cc1ccc(-c2csc(NN=C3C(=O)Nc4ccc(Cl)cc43)n2)cc1 [Compound 10f, 5-Chloro-3–(2-(4-(p-tolyl)thiazol-2-yl)hydrazono)indolin-2-one] | 22.7 ± 3.71 | 27.4 ± 5.8 | 50.3 ± 33.6 | 54.4 ± 19.5 |  | 44 | > 25.4 | > 300 | 23.4 | > 30 | 
COC(=O)c1ccc(C=NN=C2C(=O)Nc3ccc(Cl)cc32)cc1 [Compound 3c, Methyl 4-(((5-chloro-2-oxoindolin-3-ylidene)hydrazono)methyl)benzoate] | 6.07 ± 0.9 | 93.5 ± 2.8 | 98.9 ± 2.1 | 95.9 ± 4.7 | 96.1 | > 80 | 6.25 | 266 to 268 | 4.2 ± 0.57 | 8.49 ± 1.01 | 
Cc1csc(C=NN=C2C(=O)Nc3ccc(Br)cc32)n1 [Compound 5e, 5-Bromo-3-(((4-methylthiazol-2-yl)methylene)hydrazono)indolin-2-one] | 3.54 ± 0.42 | 95.3 ± 3.1 | 96.9 ± 2.4 | 99 ± 1.1 |  | 97.1 | 7.49 | 248 to 250 | 2.93 ± 0.46 | 8.51 | 
O=C1Nc2ccc(Br)cc2C1=NN=Cc1nccs1 [Compound 5d, 5-Bromo-3-((thiazol-2-ylmethylene)hydrazono)indolin-2-one] | 12.5 ± 1.73 | 94.8 ± 2.5 | 96.4 ± 1.5 | 98.5 ± 3.1 |  | 96.6 | 13.5 | 260 to 262 | 12.7 ± 2.4 | 15.3 ± 1.93 | 
Cc1ccc(-c2csc(NN=C3C(=O)Nc4ccccc43)n2)cc1 [Compound 10b, 3–(2-(4–(4-Tolyl)thiazol-2-yl)hydrazono)indolin-2-one] | > 30 | 24.4 ± 14.1 | 62.1 ± 10.7 | 33.9 ± 21.2 |  | 40.1 | > 28.2 | 284 to 286 | 24.6 | > 30 | IC50 ([1]; mean ± SD of four separate experiments, read-out: IC50 A-549): > 30 µM
Cc1ccc(-c2csc(NN=C3C(=O)Nc4ccc(Br)cc43)n2)cc1 [Compound 10j, 5-Bromo-3–(2-(4–(4-tolyl)thiazol-2-yl)hydrazono)indolin-2-one] | 12.8 ± 1.4 | 85.9 ± 9.1 | 73.1 ± 3.5 | 90.1 ± 5.3 | 83.0 | > 80 | 13 | > 300 | 10.9 ± 2.81 | 15.2 ± 1.1 | 
CCN(CC)CCNC(=O)c1c(C)[nH]c(/C=C2\C(=O)Nc3ccc(F)cc32)c1C [Sunitinib, reference compound] | 10.1 ± 0.8 | 59.5 ± 2.3 | 90.7 ± 4.5 | 85.7 ± 2.7 |  | 78.7 |  |  |  | 5.87 ± 0.3 | IC50 [1, 16]: 3.06 ± 0.9 µM; IC50 [1, 17]: 3.1 ± 0.9 µM; IC50 [6, 18]: 3.18 ± 0.07 µM; Cell cycle effects [7]: G1 decreased and G2/M-phases increased; IC50 [11]: 5.8 ± 0.52 µM; Mean tumor selectivity [12]: 1.4
O=C1Nc2ccc(Cl)cc2C1=NNc1nc(-c2ccc(Cl)cc2)cs1 [Compound 10g, 5-Chloro-3–(2-(4–(4-chlorophenyl)thiazol-2-yl)hydrazono)indolin-2-one] | 6.07 ± 7.41 | 18.9 ± 3.2 | 52.8 ± 9.4 | 34.4 ± 23.6 |  | 35.4 | > 12.7 | > 300 | 1.87 ± 0.26 | > 30 | 
